According to patent publication US12257247B2 (Monte Rosa Therapeutics AG, priority 2023, dated 2025):
Like-named read-outs stand apart in the source and are kept apart here.

Target: T1, VAV1 (Homo sapiens, UniProt P15498+Q96SW2)
T1 construct: A heterozygous VAV1 C-terminal HiBiT knock-in pool was generated at Monte Rosa Therapeutics from a clonal Jurkat cell; endogenous in cells; host or cells: Jurkat clone stably expressing LgBiT, homozygous GSPT1-G575N; heterozygous VAV1-HiBiT knock-in pool
Experiment: VAV1 degradation activity, VAV1-HiBiT knock-in Jurkat luminescence assay (Example A, Table 1)
Type: cell-based
Conditions: VAV1-HiBiT knock-in Jurkat cells, luminescence read at 6 and 24 hours; for Dmax: Jurkat
How it was run: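 Jurkat cells carrying VAV1-HiBiT knock-in, plated in RPMI/10% FBS with Endurazine live-cell substrate and pre-incubated ~16 h at 37° C. Compound dosed from 10 μM stock; luminescence read 6 and 24 h later. Response normalised to plate negative/positive controls, EC50 from 3-parameter logistic fit (hillslope 1).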

[1] = read-out: VAV1 DC50 (nM), class

| Structure (SMILES) | Dmax (read-out: VAV1 Dmax %) [%] | Dmax (read-out: VAV1 Dmax %, class) [%] | DC50 (read-out: VAV1 DC50) [nM] | DC50 [1] [nM] |
| --- | --- | --- | --- | --- |
| O=C1CCC(c2cccc(-c3ccc(N4Cc5nccn5CC4=O)cc3)c2Cl)C(=O)N1 (centres unmarked) [Compound 328] | 90.8 | > 90 | 15 | ≤ 100 |
| O=C1CCC(c2cccc(-c3ccc(N4C(=O)CCn5nccc54)cc3)c2Cl)C(=O)N1 (centres unmarked) [Compound 330] | 72.1 | 60 to 90 | 130 | 100 to 1000 |
| CC1CCN(c2ccc(-c3cccc(C4CCC(=O)NC4=O)c3Cl)cc2)C(=O)C1 (centres unmarked) [Compound 332] | 95.5 | > 90 | 10.6 | ≤ 100 |
| Cc1nn(C)c2c1N(c1ccc(-c3cccc(C4CCC(=O)NC4=O)c3Cl)cc1)C(=O)CO2 (centres unmarked) [Compound 333] | 98.2 | > 90 | 3.17 | ≤ 100 |
| CN1CC(=O)N(c2ccc(-c3cccc(C4CCC(=O)NC4=O)c3Cl)cc2)c2cnccc21 (centres unmarked) [Compound 334] | 93.5 | > 90 | 11.1 | ≤ 100 |
| CN1CC(=O)N(c2ccc(-c3cccc(C4CCC(=O)NC4=O)c3Cl)cc2)c2cccnc21 (centres unmarked) [Compound 335] | 97.3 | > 90 | 5.87 | ≤ 100 |
| O=C1CCC(c2cccc(-c3ccc(N4CCOCC4=O)cc3)c2Cl)C(=O)N1 (centres unmarked) [Compound 336] | 93.5 | > 90 | 17.4 | ≤ 100 |
| O=C1CCC(c2cccc(-c3ccc(N4C(=O)CCCC45CCC5)cc3)c2Cl)C(=O)N1 (centres unmarked) [Compound 339, 3-(2-chloro-4′-(6-oxo-5-azaspiro[3.5]nonan-5-yl)-[1,1′-biphenyl]-3-yl)piperidine-2,6-dione] | 98.2 | > 90 | 1.96 | ≤ 100 |
| O=C1CCC(c2cccc(-c3ccc(Cc4nccc(C5COC5)n4)cc3)c2Cl)C(=O)N1 (centres unmarked) [Compound 340, 3-(2-chloro-4′-((4-(oxetan-3-yl)pyrimidin-2-yl)methyl)-[1,1′-biphenyl]-3-yl)piperidine-2,6-dione] | 96.6 | > 90 | 5.86 | ≤ 100 |
| CN1CC2(CCC2)N(c2ccc(-c3cccc(C4CCC(=O)NC4=O)c3Cl)cc2)C1=O (centres unmarked) [Compound 341, 3-(2-chloro-4′-(7-methyl-6-oxo-5,7-diazaspiro[3.4]octan-5-yl)-[1,1′-biphenyl]-3-yl)piperidine-2,6-dione] | 98.2 | > 90 | 2.46 | ≤ 100 |
| CN1CC2(CC2)N(c2ccc(-c3cccc(C4CCC(=O)NC4=O)c3Cl)cc2)C1=O (centres unmarked) [Compound 342, 3-(2-chloro-4′-(6-methyl-5-oxo-4,6-diazaspiro[2.4]heptan-4-yl)-[1,1′-biphenyl]-3-yl)piperidine-2,6-dione] | 97.7 | > 90 | 4.56 | ≤ 100 |
| O=C1CCC(c2cccc(-c3ccc(Cc4nccc(C5CC5)n4)cc3)c2Cl)C(=O)N1 (centres unmarked) [Compound 344, 3-(2-chloro-4′-((4-cyclopropylpyrimidin-2-yl)methyl)-[1,1′-biphenyl]-3-yl)piperidine-2,6-dione] | 98 | > 90 | 6.97 | ≤ 100 |
| O=C1CCC(c2cccc(-c3ccc(N4C(=O)OCCC45CC5)cc3)c2Cl)C(=O)N1 (centres unmarked) [Compound 345, 3-(2-chloro-4′-(5-oxo-6-oxa-4-azaspiro[2.5]octan-4-yl)-[1,1′-biphenyl]-3-yl)piperidine-2,6-dione] | 97.9 | > 90 | 3.53 | ≤ 100 |

Next, values leading:

| Dmax (read-out: VAV1 Dmax %) [%] | Dmax (read-out: VAV1 Dmax %, class) [%] | DC50 (read-out: VAV1 DC50) [nM] | DC50 [1] [nM] | Structure (SMILES) |
| --- | --- | --- | --- | --- |
| 89.3 | 60 to 90 | 30.1 | ≤ 100 | O=C1CCC(c2cccc(-c3ccc(N4C(=O)C[C@@H]5CCC[C@@H]54)cc3)c2Cl)C(=O)N1 (some centres unmarked) [Compound 327] |
| 95.8 | > 90 | 6.62 | ≤ 100 | CC1CCCN(c2ccc(-c3cccc(C4CCC(=O)NC4=O)c3Cl)cc2)C1=O (centres unmarked) [Compound 329] |
| 91.6 | > 90 | 17.2 | ≤ 100 | CN1CCN(c2ccc(-c3cccc(C4CCC(=O)NC4=O)c3Cl)cc2)C(=O)C1 (centres unmarked) [Compound 331] |
| 40 | < 60 | 5770 | > 1000 | O=C1CCC(c2cccc(-c3ccc(C4(N5CCCCC5=O)CC4)cc3)c2Cl)C(=O)N1 (centres unmarked) [Compound 337, 3-[2-chloro-3-[4-[1-(2-oxo-1-piperidyl)cyclopropyl]phenyl]phenyl]piperidine-2,6-dione] |
| 57.8 | < 60 | 2170 | > 1000 | O=C1CCC(c2cccc(-c3ccc(N4CCOCC4)cc3)c2Cl)C(=O)N1 (centres unmarked) [Compound 338, 3-(2-chloro-4′-morpholino-[1,1′-biphenyl]-3-yl)piperidine-2,6-dione] |
| 86.3 | 60 to 90 | 161 | 100 to 1000 | O=C1CCC(c2cccc(-c3ccc(-n4c(F)cccc4=O)nc3)c2Cl)C(=O)N1 (centres unmarked) [Compound 343, 3-(2-chloro-3-(6-fluoro-2-oxo-2H-[1,2′-bipyridin]-5′-yl)phenyl)piperidine-2,6-dione] |
| 29.4 | < 60 | ≥ 10000 | > 1000 | CN1CC(=O)N(c2ccc(-c3cccc(C4CCC(=O)NC4=O)c3Cl)cn2)CC12CC2 (centres unmarked) [Compound 346, 3-(2-chloro-3-(6-(4-methyl-6-oxo-4,7-diazaspiro[2.5]octan-7-yl)pyridin-3-yl)phenyl)piperidine-2,6-dione] |
